molecular target: T1, UCHL1 (Homo sapiens, UniProt P09936); assay: UCHL1 biochemical IC50 assay (fluorescence polarisation); details: 30 min enzyme/compound pre-incubation at room temp, read after 2 hr incubation, read-out: Activity range (UCHL1 biochemical IC50 assay)
T1 construct: made in house; host or cells: HEK293T
T1 sequence (P09936 1-223): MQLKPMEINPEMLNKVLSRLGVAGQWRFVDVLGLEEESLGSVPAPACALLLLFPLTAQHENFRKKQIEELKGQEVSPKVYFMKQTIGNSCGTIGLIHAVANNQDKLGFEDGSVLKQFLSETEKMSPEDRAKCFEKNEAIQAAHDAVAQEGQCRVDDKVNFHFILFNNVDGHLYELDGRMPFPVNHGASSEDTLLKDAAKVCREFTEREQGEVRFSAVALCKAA
Source text: Biological Activity of Compounds of the Invention Abbreviations: TAMRA carboxytetramethylrhodamine PCR polymerase chain reaction PBS phosphate buffered saline EDTA ethylenediaminetetraacetic acid Tris 2-amino-2-(hydroxymethyl)-1,3-propanediol NP-40 Nonidet P-40, octylphenoxypolyethoxyethanol BSA bovine serum albumin In Vitro UCHL1 Inhibition Assay Expression and Purification of UCHL1
The UCHL1 construct was PCR amplified and cloned into a pFLAG-CMV-6a vector (Sigma-Aldrich) with an N-terminal FLAG tag. HEK293T cells were transfected with FLAG-UCHL1 using TransIT-LT1 transfection reagent (Mirus) according to the manufacturer's instructions. Cells were harvested 40 hours after transfection. Cells were washed once with PBS and scraped in lysis buffer (50 mM Tris, pH 7.5, 150 mM NaCl, 3 mM EDTA, 0.5% NP40, 10% glycerol, 5 mM beta-mercaptoethanol, protease inhibitors (complete mini, Roche) and phosphatase inhibitors (PhosSTOP mini, Roche). Lysates were incubated for 30 min on ice and centrifuged at 1200 rpm for 10 min at 4° C. Soluble supernatant was added to FLAG affinity resin (EZview Rad ANTI-FLAG M2 affinity gel, Sigma-Aldrich) equilibrated in low salt buffer (20 mM Tris, pH 7.5, 150 mM NaCl, 0.5 mM EDTA, 5 mM beta-mercaptoethanol) and incubated at 4° C. for 3 hours rotating. The resin was spun at 2000 rpm for 2 min and the supernatant was removed. The resin was washed two times with low salt buffer and one time with high salt buffer (20 mM Tris, pH 7.5, 500 mM NaCl, 0.5 mM EDTA, 5 mM beta-mercaptoethanol, protease inhibitors (complete mini, Roche) and phosphatase inhibitors (PhosSTOP mini, Roche). To elute the bound UCHL1, elution buffer (10 mM Tris, pH 7.5, 150 mM NaCl, 0.5 mM FDTA, 10% glycerol, 0.5% NP40, 5 mM beta-mercaptoethanol, 0.15 mg/ml 3×FLAG peptide (Sigma-Aldrich)) was added to the resin and incubated at 4° C. for 2.5 hours rotating. The resin was centrifuged at 4000 rpm for 30 seconds, and the supernatant containing purified FLAG-UCHL1 was removed and stored at −80° C.
UCHL1 Biochemical IC50 Assay
Dilution plates were prepared at 21 times the final concentration (2100 μM for a final concentration of 100 µM) in 50% DMSO in a 96-well polypropylene V-bottom plate (Greiner #651201). A typical 8-point dilution series to be 100, 30, 10, 3, 1, 0.3, 0.1, 0.03 μM final. Reactions were performed in duplicate in black 384 well plates (small volume, Greiner 784076) in a final reaction volume of 21 μl. Either 1 μl of 50% DMSO or diluted compound was added to the plate. UCHL1 was diluted in reaction buffer (20 mM Tris, pH 7.5, 100 mM NaCl, 0.05% Tween 20, 0.5 mg/ml BSA, 5 mM—beta mercaptoethanol) to the equivalent of 0.05 μl/well and 10 μl of diluted UCHL1 was added to the compound. Enzyme and compound were incubated for 30 min at room temp. Reactions were initiated by the addition of 50 nM of TAMRA labelled peptide linked to ubiquitin via an iso-peptide bond as fluorescence polarisation substrate. Reactions were read immediately after addition of substrate and following a 2 hr incubation at room temperature. Readings were performed on a Pherastar Plus (BMG Labtech). λ Excitation 540 nm; k Emission 590 nm.

With `CC1CC(C(=O)Nc2ncc(-c3ccccc3)s2)CN1C#N` (mixture of isomers) [Example 88, 1-cyano-5-methyl-N-(5-phenylthiazol-2-yl)pyrrolidine-3-carboxamide] as the compound, how does the IC50 read?
Its IC50 is 1 to 10 µM.

For `CC1CC(C(=O)Nc2cn(-c3ccccc3)cn2)CN1C#N` (mixture of isomers) [Example 89, I-cyano-5-methyl-N-(1-phenyl-1H-imidazol-4-yl)pyrrolidine-3-carboxamide], which IC50 is on record?
Its IC50 is 10 to 30 µM.

`CC1CC(C(=O)Nc2cc(-c3ccccc3)[nH]n2)CN1C#N` (mixture of isomers) [Example 90, 1-cyano-5-methyl-N-(5-phenyl-1H-pyrazol-3-yl)pyrrolidine-3-carboxamide] was tested. Which IC50 did it give?
Its IC50 is 10 to 30 µM.

Which IC50 does the source give for `C[C@@H]1CN(C#N)C[C@H]1C(=O)Nc1ncc(-c2ccccc2Cl)s1` (racemic) [Example 84, (±)-trans-N-(5-(2-chlorophenyl)thiazol-2-yl)-1-cyano-4-methylpyrrolidine-3-carboxamide] here?
Its IC50 is 1 to 10 µM.

How did the IC50 turn out when `CC[C@@H]1CN(C#N)C[C@H]1C(=O)Nc1ncc(-c2ccccc2)s1` (racemic) [Example 86, (±)-1-cyano-4-ethyl-N-(5-phenylthiazol-2-yl)pyrrolidine-3-carboxamide] was run?
The IC50 was < 1 µM.

`C[C@@H]1CN(C#N)C[C@H]1C(=O)Nc1ncc(N2CCCCC2)s1` (racemic) [Example 104, (±)-trans-1-cyano-4-methyl-N-(5-(piperidin-1-yl)thiazol-2-yl)pyrrolidine-3-carboxamide] was tested. Which IC50 did it give?
The IC50 was < 1 µM.

`Cc1noc(C)c1-c1ccc2nc(NC(=O)[C@@H]3CN(C#N)C[C@H]3C(F)(F)F)cn2c1` (racemic) [Example 210, (±)-trans-1-cyano-N-(6-(3,5-dimethylisoxazol-4-yl)imidazo[1,2-a]pyridin-2-yl)-4-(trifluoromethyl)pyrrolidine-3-carboxamide] was tested. Which IC50 did it give?
Its IC50 is < 1 µM.

Which IC50 does the source give for `N#CN1C[C@@H](C(=O)Nc2ncc(-c3ccccc3)s2)[C@H](c2cccnc2)C1` (relative stereo) [Example 282, trans-1-cyano-N-(5-phenylthiazol-2-yl)-4-(pyridin-3-yl)pyrrolidine-3-carboxamide] here?
The IC50 was 1 to 10 µM.

For `N#CN1C[C@@H](C(=O)Nc2ncc(-c3ccccc3)s2)[C@H](c2cncnc2)C1` (relative stereo) [Example 283, trans-1-cyano-N-(5-phenylthiazol-2-yl)-4-(pyrimidin-5-yl)pyrrolidine-3-carboxamide], which IC50 is on record?
Its IC50 is 1 to 10 µM.

With `N#CN1CC[C@H](C(=O)Nc2ncc(-c3ccccc3)s2)C1` [Example 1, (S)-1-cyano-N-(5-phenylthiazol-2-yl)pyrrolidine-3-carboxamide] as the compound, how does the IC50 read?
The IC50 was < 1 µM.

Which IC50 does the source give for `N#CN1CCC(C(=O)Nc2ncc(-c3cccc(F)c3)s2)C1` (stereo not drawn) [Example 2, 1-cyano-N-(5-(3-fluorophenyl)thiazol-2-yl)pyrrolidine-3-carboxamide] here?
The IC50 was < 1 µM.

For `N#CN1CCC(C(=O)Nc2ncc(-c3ccccc3F)s2)C1` (stereo not drawn) [Example 3, 1-cyano-N-(5-(2-fluorophenyl)thiazol-2-yl)pyrrolidine-3-carboxamide], which IC50 is on record?
Its IC50 is 1 to 10 µM.

`N#CN1CCC(C(=O)Nc2ncc(-c3ccc(Cl)cc3)s2)C1` (stereo not drawn) [Example 4, N-(5-(4-chlorophenyl)thiazol-2-yl)-1-cyano-pyrrodine-3-carboxamide] was tested. Which IC50 did it give?
Its IC50 is < 1 µM.

For `N#CN1CCC(C(=O)Nc2ncc(-c3cccc(Cl)c3)s2)C1` (stereo not drawn) [Example 5, N-(5-(3-chlorophenyl)thiazol-2-yl)-1-cyano-pyrrolidine-3-carboxamide], which IC50 is on record?
The IC50 was 1 to 10 µM.

For `N#CN1CCC(C(=O)Nc2ncc(-c3ccccc3Cl)s2)C1` (stereo not drawn) [Example 6, N-(5-(2-chlorophenyl)thiazol-2-yl)-1-cyano-pyrrolidine-3-carboxamide], which IC50 is on record?
The IC50 was 1 to 10 µM.

How did the IC50 turn out when `Cc1cnc(NC(=O)C2CCN(C#N)C2)s1` (stereo not drawn) [Example 7, 1-cyano-N-(5-methylthiazol-2-yl)pyrrolidine-3-carboxamide] was run?
Its IC50 is 1 to 10 µM.

Which IC50 does the source give for `CC(C)(C)c1cnc(NC(=O)C2CCN(C#N)C2)s1` (stereo not drawn) [Example 8, N-(5-(tert-butyl)thiazol-2-yl)-1-cyano-pyrrolidine-3-carboxamide] here?
Its IC50 is 1 to 10 µM.

How did the IC50 turn out when `N#CN1CCC(C(=O)Nc2nc(-c3ccccc3)cs2)C1` (stereo not drawn) [Example 9, 1-cyano-N-(4-phenylthiazol-2-yl)pyrrolidine-3-carboxamide] was run?
Its IC50 is 10 to 30 µM.

Which IC50 does the source give for `N#CN1CCC(C(=O)Nc2cnc(-c3ccccc3)s2)C1` (stereo not drawn) [Example 10, 1-cyano-N-(2-phenylthiazol-5-yl)pyrrolidine-3-carboxamide] here?
Its IC50 is 10 to 30 µM.

Which IC50 does the source give for `N#CN1CCC(C(=O)Nc2nnc(-c3ccccc3)s2)C1` (stereo not drawn) [Example 11, 1-cyano-N-(5-phenyl-1,3,4-thiadiazol-2-yl)pyrrolidine-3-carboxamide] here?
The IC50 was 1 to 10 µM.

Which IC50 does the source give for `CCc1nnc(NC(=O)C2CCN(C#N)C2)s1` (stereo not drawn) [Example 12, 1-cyano-N-(5-ethyl-1,3,4-thiadiazol-2-yl)pyrrolidine-3-carboxamide] here?
Its IC50 is 1 to 10 µM.

For `N#CN1CCC(C(=O)Nc2cc(-c3ccccc3)no2)C1` (stereo not drawn) [Example 13], which IC50 is on record?
Its IC50 is 1 to 10 µM.

How did the IC50 turn out when `COc1ccc(-c2cc(NC(=O)C3CCN(C#N)C3)on2)cc1` (stereo not drawn) [Example 14, 1-cyano-N-(3-(4-methoxyphenyl)isoxazol-5-yl)pyrrolidine-3-carboxamide] was run?
Its IC50 is 1 to 10 µM.

`N#CN1CCC(C(=O)Nc2cc(-c3ccccc3)on2)C1` (stereo not drawn) [Example 15, 1-cyano-N-(5-phenylisoxazol-3-yl)pyrrolidine carboxamide] was tested. Which IC50 did it give?
The IC50 was 1 to 10 µM.

`CC(C)(C)c1cc(NC(=O)C2CCN(C#N)C2)no1` (stereo not drawn) [Example 16, N-(5-(tert-butyl)isoxazol-1-3-yl)-1-cyano-pyrrolidine-3-carboxamide] was tested. Which IC50 did it give?
The IC50 was 10 to 30 µM.

Which IC50 does the source give for `CC(C)(C)c1cc(NC(=O)C2CCN(C#N)C2)[nH]n1` (stereo not drawn) [Example 17, N-(3-(tert-butyl)-1H-pyrazol-5-yl)-1-cyano-pyrrolidine-3-carboxamide] here?
The IC50 was 1 to 10 µM.

With `N#CN1CCC(C(=O)Nc2nc3ccccc3s2)C1` (stereo not drawn) [Example 18, N-(benzo[d]thiazol-2-yl)-1-cyano-pyrrolidine-3-carboxamide] as the compound, how does the IC50 read?
The IC50 was 1 to 10 µM.

`Cc1ccc2nc(NC(=O)C3CCN(C#N)C3)sc2c1` (stereo not drawn) [Example 19, 1-cyano-N-(6-methylbenzo[d]thiazol-2-yl)pyrrolidine-3-carboxamide] was tested. Which IC50 did it give?
Its IC50 is 1 to 10 µM.

How did the IC50 turn out when `N#CN1CCC(C(=O)Nc2nc3ccc(C(F)(F)F)cc3s2)C1` (stereo not drawn) [Example 20, 1-cyano-N-(6-(trifluoro-methyl)benzo[d]thiazol-2-yl)pyrrolidine-3-carboxamide] was run?
Its IC50 is 1 to 10 µM.

Which IC50 does the source give for `COc1ccc2nc(NC(=O)C3CCN(C#N)C3)sc2c1` (stereo not drawn) [Example 21, 1-cyano-N-(6-methoxybenzo[d]thiazol-2-yl)pyrrolidine-3-carboxamide] here?
Its IC50 is 1 to 10 µM.

For `N#CN1CCC(C(=O)Nc2nc3ccc(Br)cc3s2)C1` (stereo not drawn) [Example 22, N-(6-bromobenzo[d]thiazol-2-yl)-1-cyano-pyrrolidine-3-carboxamide], which IC50 is on record?
Its IC50 is 1 to 10 µM.

For `N#CN1CCC(C(=O)Nc2nc3ccccc3[nH]2)C1` (stereo not drawn) [Example 23, N-(1H-benzo[d]imidazol-2-yl)-1-cyano-pyrrolidine-3-carboxamide], which IC50 is on record?
Its IC50 is 10 to 30 µM.

Which IC50 does the source give for `N#CN1CCC(C(=O)Nc2ccccn2)C1` (stereo not drawn) [Example 24, 1-cyano-N-(pyridin-2-yl)pyrrolidine-3-carboxamide] here?
Its IC50 is 10 to 30 µM.

For `N#CN1CCC(C(=O)Nc2ccc(Cl)cn2)C1` (stereo not drawn) [Example 25, N-(5-chloropyridin-2-yl)-1-cyano-pyrrolidine-3-carboxamide], which IC50 is on record?
The IC50 was 10 to 30 µM.

With `Cc1ccc(NC(=O)C2CCN(C#N)C2)nc1` (stereo not drawn) [Example 26, 1-cyano-N-(5-methylpyridin-2-yl)pyrrolidine-3-carboxamide] as the compound, how does the IC50 read?
The IC50 was 10 to 30 µM.

Which IC50 does the source give for `COc1ccc(NC(=O)C2CCN(C#N)C2)nc1` (stereo not drawn) [Example 27, 1-cyano-N-(5-methoxy-pyridin-2-yl)pyrrolidine 3-carboxamide] here?
Its IC50 is 10 to 30 µM.
